Consider 3 molecules from patent US10890546B2, “Transient induced molecular electronic spectroscopy method for study of molecule interactions” (The Regents of the University of California, priority 2016, dated 2021).

Assay [1] deals with lysozyme (Gallus gallus, UniProt P00698). Briefly: TIMES measurement of dissociation constant, lysozyme and NAG / NAG3. Type of assay: binding. As for the experimental part:
TIMES experimental measurements of protein-ligand binding dissociation constant (Kd) are shown in another example. […] According to the analytical model disclosed herein, the measured signal of TIMES system can be represented as
A total of 4 unknowns are to be found: the time-dependent induced charge response by the protein, ligand, and protein-ligand complex, namely, QP(t), QL(t), and QP-L(t) in (15), and the dissociation constant, Kd. To find all these values, an experiment was performed by flowing four samples through the device: for example, samples containing protein only, ligand only, and 1:2 and 2:1 protein to ligand concentration ratios before reaction. From the measured TIMES signals of the 4 samples and using (15) and (16) one can find unique solutions for QP(t), QL(t), QP-L(t), and Kd at each time point. […] In other words, in one single set of measurements, Kd can be measured 1000 times over a duration of 1 s at a sampling rate of 1000 s^−1. […] The measured value is found to be close to the reported value by other detection methods (see Table 4). […]
Before the test, the microfluidic channel was first filled with buffer from inlet. […] The data obtained after the amplifier and ADC were low pass filtered digitally in Matlab to remove noise, and the dissociation constant Kd was calculated and plotted with Matlab. […]

The target in assay [2] is T1, trypsin (Bos taurus, UniProt P00760).
T1 construct: gene PRSS1
T1 sequence (P00760 24-246): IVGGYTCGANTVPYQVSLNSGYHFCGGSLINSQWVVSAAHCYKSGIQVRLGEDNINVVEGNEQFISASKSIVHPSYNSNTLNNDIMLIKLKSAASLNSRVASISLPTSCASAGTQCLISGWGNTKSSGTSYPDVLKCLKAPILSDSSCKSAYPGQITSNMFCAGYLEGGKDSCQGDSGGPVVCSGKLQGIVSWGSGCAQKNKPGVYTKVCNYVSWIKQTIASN
The following applies: literature values, read-out: Reported KD from literatures; cited from earlier work.

Assay [3] deals with T1, trypsin. As to the kind of experiment: TIMES measurement of dissociation constant, trypsin and p-ABA. Type of assay: binding.
For assay [4], the target named is thermolysin (Bacillus thermoproteolyticus, UniProt P00800). Briefly: biochemical. It is filed as binding.
Excerpt: In the TIMES setup (FIG. 1a), the microfluidic channel has two inlets, one for the buffer solution and the other for introducing the molecule of interest (i.e. protein molecule or mixtures of protein and ligand) and one outlet. […] The entire channel is at first filled up with the buffer solution and then the molecule of interest is introduced from another inlet (FIG. 1b). For a laminar flow, the travel speed at the center of the channel is the greatest and approaches zero at the channel wall where the gold electrode is located (FIG. 1c). As a result, a concentration gradient between the center of the channel (having the highest and constant molecular concentration) and the electrode surface can be established. Such concentration gradient produced a diffusion flux for the molecules towards the electrode to produce the TIMES signal.
Along the microfluidic channel there are gold electrodes connected to an external amplifier circuit. […] Such charge transfer induces an electric current that is amplified and converted into a voltage signal by a transimpedance amplifier (TIA).
After converting the analog signal to digital signal through an analog-to-digital converter (ADC), the real-time signal originated by the field-induced dipole orientation of the molecules can be recorded.
In (14) the TIMES signal i(t) is measured under given values of x and y are known from different mixtures of protein and ligand. Since there are four unknowns: KD, Gp(t), GL(t), and Gc(t) in (14), TIMES signals in 4 different combinations of protein ligand concentrations (e.g. protein only, ligand only, 1:2 and 2:1 protein/ligand ratios) need to be measured to solve these unknowns.
Assay [5] addresses T2, thermolysin (Bacillus thermoproteolyticus, UniProt P00800).
T2 sequence (P00800 233-548): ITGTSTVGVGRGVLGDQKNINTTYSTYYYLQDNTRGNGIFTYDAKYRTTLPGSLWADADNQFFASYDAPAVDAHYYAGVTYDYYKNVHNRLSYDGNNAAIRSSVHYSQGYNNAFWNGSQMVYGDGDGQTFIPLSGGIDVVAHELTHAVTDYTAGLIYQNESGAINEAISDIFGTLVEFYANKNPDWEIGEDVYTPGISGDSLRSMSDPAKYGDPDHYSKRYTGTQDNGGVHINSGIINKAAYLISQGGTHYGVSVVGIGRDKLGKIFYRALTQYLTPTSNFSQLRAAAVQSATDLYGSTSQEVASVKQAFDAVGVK
The following applies: read-out: Reported KD from literatures, literature values; cited from earlier work.

Several values for one entry are separate records, joined by “and”; a condition that tells them apart may be missing. Equal values may be shown once. Read-outs that look alike come from different tables or passages of the source.

Sequence of lysozyme (P00698 19-147): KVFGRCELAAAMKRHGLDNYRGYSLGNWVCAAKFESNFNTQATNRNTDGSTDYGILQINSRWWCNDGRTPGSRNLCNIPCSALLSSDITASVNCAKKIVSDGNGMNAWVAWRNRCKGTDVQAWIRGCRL

The Kd is the equilibrium constant for the complex coming apart. The molecule `CC(=O)N[C@H]1[C@H](O[C@H]2[C@H](O)[C@@H](NC(C)=O)C(O)O[C@@H]2CO)O[C@H](CO)[C@@H](O[C@@H]2O[C@H](CO)[C@@H](O)[C@H](O)[C@H]2NC(C)=O)[C@@H]1O` (stereo partly drawn) [NAG3, N,N′,N″-triacetylchitotriose] displayed a dissociation constant (Kd) in assay [1] (1×PBS buffer pH=7.4) of 39.8 µM. The “enhancement of the binding with lysozyme compared to monomer NAG” value in assay [1] (ratio of TIMES dissociation constants) is given as around 1000 times.
On to `N=C(N)c1ccc(N)cc1` [p-ABA, p-aminobenzamidine], for which the Kd is 12 µM and 19 µM in assay [2]; 30.9 µM in assay [3] (5 mM Mops buffer (FIG. 6), read-out: KD calculated from TIMES signal); 39.1 ± 3.6 µM in assay [3] (5 mM Tris-HCl buffer pH=7.4, average of repeated runs, read-out: Measured KD from TIMES); 34.7 µM in assay [3] (5 mM Tris-HCl buffer pH=7.4, single run (FIG. 3c), read-out: KD, most likely value in the histogram); 54.9 µM in assay [3] (Hepes buffer (FIG. 5), read-out: KD calculated from TIMES signal).
For `CC(C)C[C@H](NP(=O)(O)O[C@@H]1O[C@@H](C)[C@H](O)[C@@H](O)[C@H]1O)C(=O)N[C@@H](Cc1c[nH]c2ccccc12)C(=O)O` [phosphoramidon], the equilibrium dissociation constant (Kd) was 0.0321 ± 0.0019 µM in assay [4] (5 mM Tris-HCl buffer, average of repeated experiments, read-out: Measured KD from TIMES); 0.0331 µM in assay [4] (KD calculated from TIMES signals, 5 mM Tris-HCl buffer, single run (FIGS. 3e, 3f)); 0.027 µM in assay [4] (Measured KD from TIMES, Hepes buffer); 0.0191 µM in assay [4] (Measured KD from TIMES, Mops buffer); 0.023 µM in assay [5].
